Data published in patent US20070128217A1 (priority 2003, published 2007).

How the values were obtained:
[1] = tested on: antibodies in sera from SARS patients (sera 1a, 1b, 2, 6, 37, 62, London, SARS-yellow, SARS-green); assay type: binding, human; set-up: Binding of serum 6 to linear peptides of protein X1 of SARS-CoV Urbani / Binding of serum 37 to linear peptides of protein X1 of SARS-CoV Urbani / Binding of serum 6 to looped/cyclic peptide (PEPSCAN-ELISA) / Binding of serum 37 to looped/cyclic peptide (PEPSCAN-ELISA) / Binding of serum 37 to looped/cyclic peptides of protein X1 of SARS-CoV Urbani / Binding of serum 6 to linear peptides of protein X2 / Binding of serum 37 to linear peptides of protein X2 / Binding of serum 37 to looped/cyclic peptides of protein X2 of SARS-CoV Urbani / Binding of serum 6 to linear peptides of protein M of SARS-CoV Urbani / Binding of serum 37 to linear peptides of protein M of SARS-CoV Urbani / Binding of serum 6 to looped/cyclic peptides of protein M of SARS-CoV Urbani / Binding of serum 37 to looped/cyclic peptides of protein M of SARS-CoV Urbani / Binding of serum 6 to linear peptides of protein X3 of SARS-CoV Urbani / Binding of serum 37 to linear peptides of protein X3 of SARS-CoV Urbani / Binding of serum 37 to looped/cyclic peptides of protein X3 of SARS-CoV Urbani / Binding of serum 6 to linear peptides of protein X4 of SARS-CoV Urbani / Binding of serum 37 to linear peptides of protein X4 of SARS-CoV Urbani / Binding of serum 37 to looped/cyclic peptides of protein X4 of SARS-CoV Urbani / Binding of serum 6 to linear peptides of protein X5 of SARS-CoV Urbani / Binding of serum 37 to linear peptides of protein X5 of SARS-CoV Urbani / Binding of serum 37 to looped/cyclic peptides of protein X5 of SARS-CoV Urbani / Binding of serum 6 to linear peptides of protein N of SARS-CoV Urbani / Binding of serum 37 to linear peptides of protein N of SARS-CoV Urbani / Binding of serum 6 to linear peptide (PEPSCAN-ELISA) / Binding of serum 1a to looped/cyclic peptides of protein N of SARS-CoV Urbani / Binding of serum 1b to looped/cyclic peptides of protein N of SARS-CoV Urbani / Binding of serum 2 to looped/cyclic peptides of protein N of SARS-CoV Urbani / Binding of serum 6 to looped/cyclic peptides of protein N of SARS-CoV Urbani / Binding of serum 37 to looped/cyclic peptides of protein N of SARS-CoV Urbani / Binding of serum 62 to looped/cyclic peptides of protein N of SARS-CoV Urbani / Binding of serum London to looped/cyclic peptides of protein N of SARS-CoV Urbani / Binding of serum SARS-green to looped/cyclic peptides of protein N of SARS-CoV Urbani: unit not given here
[2] = tested on: control sera (pooled serum of ten healthy LUMC hospital workers; commercial negative donor pooled serum from the Dutch bloodbank); assay type: binding, human; set-up: Binding of Control serum LUMC to linear peptides / Binding of Control serum Blood-bank to linear peptides / Binding of Control serum LUMC to looped peptides / Binding of Control Serum Blood-Bank to Looped peptides / Binding of Control serum LUMC to linear peptides of the protein M of SARS-CoV Urbani / Binding of Control serum Blood-bank to linear peptides of the protein M of SARS-CoV Urbani / Binding of Control serum LUMC to looped peptides of the protein M of SARS-CoV Urbani / Binding of Control Serum Blood-Bank to Looped peptides of the protein M of SARS-CoV Urbani: unit not given here
[3] = tested on: rabbit serum obtained by immunizing a rabbit with the SARS-CoV strain Frankfurt 1; assay type: binding; set-up: Binding of a rabbit serum to linear peptides / Binding of a rabbit serum to looped peptides / Rabbit serum linear peptides / Rabbit serum looped peptides / Binding of a rabbit serum to linear peptides of protein N of SARS-CoV Urbani (Rabbit serum linear peptides) / Binding of a rabbit serum to looped/cyclic peptides of protein N of SARS-CoV Urbani (Rabbit serum looped peptides): unit not given here
[4] = tested on: recombinant human anti-SARS-CoV antibody 03-018; assay type: binding; set-up: Binding of antibody 03-018 to linear peptides of the N protein of SARS-CoV Urbani / Binding of antibody 03-018 to looped/cyclic peptides of the N protein of SARS-CoV Urbani: unit not given here

**Q.** Which results are given for QLESKVSGKGQQQQG?
**A.** Binding of serum 1a to linear peptide (PEPSCAN-ELISA) [1]: 0.3; Binding of serum 1a to looped/cyclic peptides of protein N of SARS-CoV Urbani [1]: 0.5; Binding of serum 1b to linear peptide (PEPSCAN-ELISA) [1]: 0.1; Binding of serum 1b to looped/cyclic peptides of protein N of SARS-CoV Urbani [1]: 0.4; Binding of serum 2 to linear peptide (PEPSCAN-ELISA) [1]: 0.3; Binding of serum 2 to looped/cyclic peptides of protein N of SARS-CoV Urbani [1]: 0.7; Binding of serum 6 to linear peptide (PEPSCAN-ELISA) [1]: 0.2; Binding of serum 6 to looped/cyclic peptides of protein N of SARS-CoV Urbani [1]: 0.5; Binding of serum 37 to linear peptide (PEPSCAN-ELISA) [1]: 0.7; Binding of serum 37 to looped/cyclic peptides of protein N of SARS-CoV Urbani [1]: 0.6; Binding of serum 62 to linear peptide (PEPSCAN-ELISA) [1]: 0.8; Binding of serum 62 to looped/cyclic peptides of protein N of SARS-CoV Urbani [1]: 0.7; Binding of serum London to linear peptide (PEPSCAN-ELISA) [1]: 0.6; Binding of serum London to looped/cyclic peptides of protein N of SARS-CoV Urbani [1]: 0.7; Binding of serum SARS-green to linear peptide (PEPSCAN-ELISA) [1]: 0.5; Binding of serum SARS-green to looped/cyclic peptides of protein N of SARS-CoV Urbani [1]: 0.7; Binding of serum SARS-yellow to linear peptide (PEPSCAN-ELISA) [1]: 0.8; Binding of serum SARS-yellow to looped/cyclic peptides of protein N of SARS-CoV Urbani [1]: 1.1; Binding of Control Serum Blood-Bank to Looped peptides [2]: 1.0; Binding of Control serum Blood-bank to linear peptides [2]: 0.8; Binding of Control serum LUMC to linear peptides [2]: 0.8; Binding of Control serum LUMC to looped peptides [2]: 0.9; Binding of a rabbit serum to linear peptides of protein N of SARS-CoV Urbani (Rabbit serum linear peptides) [3]: 0.1; Binding of a rabbit serum to looped/cyclic peptides of protein N of SARS-CoV Urbani (Rabbit serum looped peptides) [3]: 0.4; Binding of antibody 03-018 to linear peptides of the N protein of SARS-CoV Urbani [4]: 0.1; Binding of antibody 03-018 to looped/cyclic peptides of the N protein of SARS-CoV Urbani [4]: 0.3

**Q.** QPLPQRQKKQPTVTL was tested. Which “Binding of serum 1a to linear peptides of protein N of SARS-CoV Urbani” value [1] did it give?
**A.** The value was 0.2.

**Q.** And the “Binding of serum 1b to linear peptides of protein N of SARS-CoV Urbani” value [1]?
**A.** The value was 0.2.

**Q.** What about the “Binding of serum 2 to linear peptides of protein N of SARS-CoV Urbani” value [1] of the same sequence?
**A.** The value was 0.3.

**Q.** What about the “Binding of serum 6 to linear peptides of protein N of SARS-CoV Urbani” value [1] of the same sequence?
**A.** Its value is 0.4.

**Q.** What about the “Binding of serum 37 to linear peptides of protein N of SARS-CoV Urbani” value [1] of the same sequence?
**A.** Its value is 0.6.

**Q.** What about the “Binding of serum 62 to linear peptides of protein N of SARS-CoV Urbani” value [1] of the same sequence?
**A.** Its value is 0.6.

**Q.** What about the “Binding of serum London to linear peptides of protein N of SARS-CoV Urbani” value [1] of the same sequence?
**A.** Its value is 1.3.

**Q.** And the “Binding of serum SARS-green to linear peptides of protein N of SARS-CoV Urbani” value [1]?
**A.** The value was 0.2.

**Q.** What about the “Binding of serum SARS-yellow to linear peptides of protein N of SARS-CoV Urbani” value [1] of the same sequence?
**A.** The value was 1.3.

**Q.** What about the “Recognition of the peptide by sera of SARS-CoV infected individuals, and form (linear, looped/cyclic) in which it is recognized” value [1] of the same sequence?
**A.** Its value is “recognized in looped/cyclic form”.

**Q.** And the “Control Serum Blood-Bank Looped peptides” value [2]?
**A.** The value was 1.0.

**Q.** What about the “Control serum Blood-bank linear peptides” value [2] of the same sequence?
**A.** Its value is 0.6.

**Q.** What about the “Control serum LUMC linear peptides” value [2] of the same sequence?
**A.** The value was 0.5.

**Q.** What about the “Control serum LUMC looped peptides” value [2] of the same sequence?
**A.** The value was 0.9.

**Q.** And the “Binding of a rabbit serum to linear peptides of protein N of SARS-CoV Urbani (Rabbit serum linear peptides)” value [3]?
**A.** The value was 0.1.

**Q.** What about the “Binding of a rabbit serum to looped/cyclic peptides of protein N of SARS-CoV Urbani (Rabbit serum looped peptides)” value [3] of the same sequence?
**A.** Its value is 0.7.

**Q.** What about the “Binding of antibody 03-018 to linear peptides of the N protein of SARS-CoV Urbani” value [4] of the same sequence?
**A.** The value was 0.1.

**Q.** What about the “Binding of antibody 03-018 to looped/cyclic peptides of the N protein of SARS-CoV Urbani” value [4] of the same sequence?
**A.** The value was 0.3.

**Q.** What does the source list for QQQGQTVTKKSAAEA?
**A.** Binding of serum 1a to linear peptide (PEPSCAN-ELISA) [1]: 0.6; Binding of serum 1a to looped/cyclic peptides of protein N of SARS-CoV Urbani [1]: 0.5; Binding of serum 1b to linear peptide (PEPSCAN-ELISA) [1]: 0.2; Binding of serum 1b to looped/cyclic peptides of protein N of SARS-CoV Urbani [1]: 0.3; Binding of serum 2 to linear peptide (PEPSCAN-ELISA) [1]: 0.5; Binding of serum 2 to looped/cyclic peptides of protein N of SARS-CoV Urbani [1]: 0.7; Binding of serum 6 to linear peptide (PEPSCAN-ELISA) [1]: 0.2; Binding of serum 6 to looped/cyclic peptides of protein N of SARS-CoV Urbani [1]: 0.5; Binding of serum 37 to linear peptide (PEPSCAN-ELISA) [1]: 0.5; Binding of serum 37 to looped/cyclic peptides of protein N of SARS-CoV Urbani [1]: 0.6; Binding of serum 62 to linear peptide (PEPSCAN-ELISA) [1]: 0.5; Binding of serum 62 to looped/cyclic peptides of protein N of SARS-CoV Urbani [1]: 0.7; Binding of serum London to linear peptide (PEPSCAN-ELISA) [1]: 0.6; Binding of serum London to looped/cyclic peptides of protein N of SARS-CoV Urbani [1]: 0.6; Binding of serum SARS-green to linear peptide (PEPSCAN-ELISA) [1]: 0.3; Binding of serum SARS-green to looped/cyclic peptides of protein N of SARS-CoV Urbani [1]: 0.9; Binding of serum SARS-yellow to linear peptide (PEPSCAN-ELISA) [1]: 0.6; Binding of serum SARS-yellow to looped/cyclic peptides of protein N of SARS-CoV Urbani [1]: 0.6; Binding of Control Serum Blood-Bank to Looped peptides [2]: 0.6; Binding of Control serum Blood-bank to linear peptides [2]: 0.6; Binding of Control serum LUMC to linear peptides [2]: 0.5; Binding of Control serum LUMC to looped peptides [2]: 0.6; Binding of a rabbit serum to linear peptides of protein N of SARS-CoV Urbani (Rabbit serum linear peptides) [3]: 0.0; Binding of a rabbit serum to looped/cyclic peptides of protein N of SARS-CoV Urbani (Rabbit serum looped peptides) [3]: 0.0; Binding of antibody 03-018 to linear peptides of the N protein of SARS-CoV Urbani [4]: 0.1; Binding of antibody 03-018 to looped/cyclic peptides of the N protein of SARS-CoV Urbani [4]: 0.2
